According to paper PMC11459959, “Discovery of new acetamide derivatives of 5-indole-1,3,4-oxadiazol-2-thiol as inhibitors of HIV-1 Tat-mediated viral transcription” (Antimicrobial Agents and Chemotherapy, 2024):

What was measured:
HIV-1 integrase = target: T1, HIV-1 integrase (Human immunodeficiency virus type 1 group M subtype B, UniProt P04585); assay: In vitro integrase assay; assay type: biochemical; conditions: 10 µM
T1 construct: purchased XpressBio
Method: (§1) Fig 5 (A) Time-of-addition assay. […] Subsequently, the cells were treated with the compounds at the indicated time points (0, 1, 2, 4, 6, 8, 10, 12, 24, 30, 36, 42, and 48 h) after HIV-1 infection. The final concentrations of compounds are described in Materials and Methods. Viral activity according to the timing of drug addition was measured as F-Luc activity at 54 h after infection. The relative activities are represented as the mean ± SD (n = 3) compared with the activity observed 54 h post-infection. The relative time frames associated with each HIV-1 infection step are defined based on the time frame of susceptibility to the drug that blocks that particular infection step. […] At 16 h after infection, the viral reverse transcription (RT) product (viral cDNA) level was determined by quantitative real-time PCR (RT-qPCR) using gag and 18S rRNA primer sets and represented as the mean ± SD (n = 3) normalized against the amount of the 18S rRNA compared with the DMSO control. **P < 0.01 compared with the vehicle (DMSO). […] At 40 h after infection, cellular chromosomal DNA was purified, and the integrated proviral DNA was detected through nested Alu-PCR amplification.
(§2) The activity of HIV-1 RT was determined as previously described with some minor modifications ([66][–][68]). […] The relative levels of RT products were analyzed using the ΔΔCt-method, as described above. […]

[1] = target: T2, interaction between Tat and cyclin T1 (Human immunodeficiency virus type 1 group M subtype B, UniProt P04608); assay: Co-immunoprecipitation of Tat and cyclin T1; assay type: cell-based; conditions: co-immunoprecipitation in transfected cells
T2 construct: expressed in transfected cells; the methods paragraph b60 says 293T
Method: The co-immunoprecipitation assay was performed as previously described ([12], [58]). Briefly, 293T cells were transfected with Tat-expressing plasmids (pcDNA3–Flag–Tat86) using Lipofectamine 2000 (Invitrogen). After 48 h, the cells were lysed in an immunoprecipitation buffer [250 mM NaCl, 0.5% NP-40, 50 mM Tris-HCl (pH 7.5), 5 mM ethylenediaminetetraacetic acid, and protease/phosphatase inhibitor cocktail]. The cell lysates were subsequently incubated with an anti-Flag monoclonal antibody (M2; Sigma-Aldrich) at 4°C. After overnight incubation, the immune complex was then pulled down with protein A/G-agarose beads (Santa Cruz Biotechnology) and analyzed using western blotting.
Supplementary Figure S6. A. Quantitativereal-timePCRofHIV-1mRNAfromHIV-1 NL4-3-infectedA3.01cells treated oruntreatedwiththeindicatedcompoundswasperformedusingthe envprimerset,andlevelswerenormalizedtothoseof gapdh. Thedata
represent the relative fold change compared with DMSO treatment (n = 3).B. Effect of the compounds on NF-κB promoter activity assessed using a luciferase assay. […]
pCMV-R-Luc (200 ng). […] Theluciferase activity was determined using aDual-GloTMLuciferase assaykit (Promega).
The data normalized to the R-Luc activity are expressed as themean±SD (n = 3) of the relative fold activitycompared with the no-PMA(vehicle) treatment.C. […]

[2] = system: reverse transcription of the infected virus; assay: Viral reverse transcription product (viral cDNA) in infected A3.01 cells, RT-qPCR; assay type: cell-based, HIV-1; conditions: 1.5 µM, 16 h after infection
Method: as §1, §2

Tat protein = Tat protein level in transfected HeLa cells, western blotting; conditions: HeLa cells transfected with pcDNA3-Flag-Tat86, 1.5 µM, 2 days
Method: (C) HeLa cells were transfected with pcDNA3-Flag-Tat86 plasmid. […] The levels of Tat protein were analyzed by western blotting using antibodies against Flag and α-tubulin.
The protein levels of the cell lysates were analyzed using western blotting as previously described ([12]). In brief, whole-cell lysates and samples fractionated in nuclear or cytoplasm were prepared with a 5× SDS sample buffer and subsequently subjected to SDS-polyacrylamide gel electrophoresis. Proteins were subsequently transferred onto polyvinylidene difluoride membranes (Millipore).

T2 sequence (P04608 whole entry): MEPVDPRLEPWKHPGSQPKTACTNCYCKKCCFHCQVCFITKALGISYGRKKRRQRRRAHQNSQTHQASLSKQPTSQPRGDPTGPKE

SMILES	inhibitory effect on in vitro integrase activity (HIV-1 integrase)	change in interaction between Tat and cyclin T1 [1]	inhibitory effect on reverse transcription of the infected virus [2]	decrease of expression of Tat protein (Tat protein)
Cc1[nH]c2ccc(-c3nnc(SCC(=O)N4CCCCC4)o3)cc2c1C [Compound 9, 2-((5-(2,3-Dimethyl-1H-indol-5-yl)-1,3,4-oxadiazol-2-yl)thio)-1-(piperidin-1-yl)ethan-1-one]	did not exhibit the inhibitory effect	no changes were observed	did not exhibit the inhibitory effect	did not exhibit a decrease
Cc1[nH]c2ccc(-c3nnc(SCC(=O)N4CCCC4)o3)cc2c1C [Compound 13, 2-((5-(2,3-Dimethyl-1H-indol-5-yl)-1,3,4-oxadiazol-2-yl)thio)-1-(pyrrolidin-1-yl)ethan-1-one]	did not exhibit the inhibitory effect	no changes were observed	did not exhibit the inhibitory effect	did not exhibit a decrease
